Data on one molecule can be found in US20220040263A1, “COMPANION DIAGNOSTIC FOR COMBINATION LENALIDOMIDE AND ERYTHROPOIETIN TREATMENT” (H. Lee Moffitt Cancer Center and Research Institute, Inc., priority 2016, published 2022).

One experiment has as its system UT-7 cells. The experiment in a line: UT7 colony forming assay with or without EPO. It counts as cell-based. As to the method:
FIGS. 1A and 1B show Lenalidomide potentiates clonogenic response to […]. […] Colonies were scored after 14 days incubation and the growth of bone marrow colony-forming unit granulocyte, erythroid, macrophage, megakaryocyte (CFU-GEMM); burst-forming unit-erythroid (BFU-E); and colony-forming unit granulocyte-macrophage (CFU-GM) assessed. […] Cells were then plated in methylcellulose+10% FBS, 2000 cells/well, with or without erythropoietin (EPO). Colonies were scored at day seven.
When UT7 cells were exposed to lenalidomide prior to culture initiation with EPO, supra-additive colony forming capacity was observed that exceeded growth induced by EPO and/or lenalidomide treatments [P=0.001].

In another experiment the test system is c-Src. The experiment in a line: c-Src activation (p-Src416, p-Src527, Bcl-XL) in UT7 cells by Western immunoblot. It counts as cell-based. The source says: FIGS. 5A and 5B show lenalidomide potentiates c-Src activation. […] Cells were lysed and assayed for β-actin (Sigma), or Src, p-Src416, p-Src 527 and Bcl-XL (Cell Signaling) by Western immunoblot. Protein loading was normalized to β-actin. Relative Src activation in FIG. 5B represents the ratio of p-Src416 (activation site phosphorylation) to p-Src527 (C-terminal inhibitory p-tyrosine).
To confirm that EPO-R signal potentiation by lenalidomide is associated with activation of Src and Lyn kinases, Src activation was evaluated using phospho-tyrosine specific antibodies that recognize either the activation loop tyrosine (Tyr416) or the C-terminal inhibitory tyrosine (Tyr527) of c-Src. Lenalidomide alone increased phosphorylation of Tyr416 by 50% compared to the vehicle treated control [FIG. 5].

Another experiment deals with T1, rhu-CD45 (Homo sapiens, UniProt P08575).
T1 construct: purchased Calbiochem
T1 sequence (P08575 26-1306): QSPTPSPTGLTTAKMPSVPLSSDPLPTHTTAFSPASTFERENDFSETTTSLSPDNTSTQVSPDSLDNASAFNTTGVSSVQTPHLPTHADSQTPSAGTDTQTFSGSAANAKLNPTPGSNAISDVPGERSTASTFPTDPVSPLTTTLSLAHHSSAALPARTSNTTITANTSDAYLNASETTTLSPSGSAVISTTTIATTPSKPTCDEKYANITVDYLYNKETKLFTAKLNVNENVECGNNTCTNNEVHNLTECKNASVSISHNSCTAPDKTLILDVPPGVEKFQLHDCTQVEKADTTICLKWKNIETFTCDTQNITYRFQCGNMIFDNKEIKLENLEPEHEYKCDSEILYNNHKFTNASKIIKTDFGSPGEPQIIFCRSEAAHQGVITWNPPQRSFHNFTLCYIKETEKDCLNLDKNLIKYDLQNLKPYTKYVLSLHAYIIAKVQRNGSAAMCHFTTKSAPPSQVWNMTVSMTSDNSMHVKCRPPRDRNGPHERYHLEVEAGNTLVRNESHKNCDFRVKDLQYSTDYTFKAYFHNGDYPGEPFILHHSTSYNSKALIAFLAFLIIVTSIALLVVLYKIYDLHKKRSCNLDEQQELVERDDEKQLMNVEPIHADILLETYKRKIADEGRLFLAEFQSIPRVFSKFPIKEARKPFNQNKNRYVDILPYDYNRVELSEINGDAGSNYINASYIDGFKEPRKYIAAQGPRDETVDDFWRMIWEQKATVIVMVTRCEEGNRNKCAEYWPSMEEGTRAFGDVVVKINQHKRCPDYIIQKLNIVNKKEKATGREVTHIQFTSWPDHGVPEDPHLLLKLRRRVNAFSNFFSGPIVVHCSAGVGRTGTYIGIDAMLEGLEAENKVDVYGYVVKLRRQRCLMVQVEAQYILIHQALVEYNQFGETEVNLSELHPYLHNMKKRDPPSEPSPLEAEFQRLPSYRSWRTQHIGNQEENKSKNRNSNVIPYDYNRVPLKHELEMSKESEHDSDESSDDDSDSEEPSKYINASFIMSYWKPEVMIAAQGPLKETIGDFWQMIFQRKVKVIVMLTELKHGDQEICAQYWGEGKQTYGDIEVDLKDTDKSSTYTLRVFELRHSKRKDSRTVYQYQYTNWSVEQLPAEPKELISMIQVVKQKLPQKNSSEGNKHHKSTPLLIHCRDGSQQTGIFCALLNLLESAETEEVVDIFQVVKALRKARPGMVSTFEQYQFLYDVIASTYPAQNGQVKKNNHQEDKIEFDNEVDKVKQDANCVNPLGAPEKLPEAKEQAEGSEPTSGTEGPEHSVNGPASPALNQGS
The experiment in a line: BIOMOL Green CD45 Tyrosine Phosphatase Assay. It counts as biochemical. To be noted: recombinant CD45, substrate pp60c-Src, read-out: inhibition of CD45 PTP activity. As to the method: CD45-specific PTP activity was assayed as outlined in the BIOMOL Green™ CD45 Tyrosine Phosphatase Assay Kit. Briefly, 75 U of rhu-CD45 (Calbiochem) was incubated for 1H at 37° C. with the indicated inhibitors (1 μM CC5013 and thalidomide, 100 μM Na Orthovanadate, and 50 μM RWJ-60475 (CD45-specific PTP inhibitor) in 1× assay buffer. The substrate pp60c-Src was added at 200 μM and incubated for 1H at 37° C. Samples were read on a plate reader at 620 nm. Percent PTP activity was calculated according to the equation (OD of test sample/OD of control)×100.
This notion is in agreement with findings that lenalidomide suppressed cytosolic release of Csk that is dependent upon dephosphorylation of the Cbp/PAG Csk docking site (Tyr314) by CD45. To determine if lenalidomide inhibits CD45 phosphatase, recombinant CD45 PTP inhibition by lenalidomide and thalidomide was compared to the pan-PTP inhibitor sodium orthovanadate and the CD45-selective inhibitor, RWJ-60475 using the Biomol CD45 phosphatase assay. […] [FIG. 7].

The test system of experiment [1] is lower risk MDS patients who have failed treatment with rhu-EPO. To be noted: cited from earlier work.

Take `Nc1cccc2c1CN(C1CCC(=O)NC1=O)C2=O` (stereo not shown) [lenalidomide, 3-(4-amino-1-oxo-1,3-dihydro-2H-isoindol-2-yl)piperidine-2,6-dione]: in the experiment with UT-7 cells (UT7 cells exposed to lenalidomide prior to culture initiation with EPO, P=0.001), the colony forming capacity result was “supra-additive”. Besides, the colony forming capacity result in the experiment on UT-7 cells (lenalidomide 1 μM alone, UT7 cells) is listed as “minimal effect”. Besides, the “increase in phosphorylation of Src Tyr416 compared to the vehicle treated control” value in the experiment with c-Src (lenalidomide alone) is 50%. Further, the “Src activation compared to the vehicle control” value with c-Src (lenalidomide combined with EPO, supra-additive) is ~3 fold. In addition, in the experiment with c-Src (lenalidomide pre-treatment), the “EPO-dependent induction of Bcl-XL” value is recorded as “augmented”. Moreover, the inhibition at 1 µM at rhu-CD45 was ~50%. Further, in experiment [1] (del5q patients), the cytogenetic response is on record as 74% and the transfusion-independence is reported as 67%. The erythroid response in experiment [1] (patients with chromosome 5q31 interstitial deletion (del5q)) was 76%. In experiment [1] (patients with normal or alternate karyotypes), the MER rate is 25-30%.

By inhibition is commonly meant the drop in the measured response relative to a control, in per cent.
